{"source": "patent US11583568B2", "about": "“Methods for administering angiotensin II” (La Jolla Pharma, LLC, priority 2017, dated 2023)", "key": {"[1]": {"details": "cited from earlier work"}, "[2]": {"tested_on": "patients suffering from hypotension", "experiment": "28-day survival of hypotensive patients given angiotensin II or placebo, by baseline Ang I:Ang II ratio", "format": "in vivo, human", "experimental": "The ratio of blood concentration of angiotensin I to blood concentration of angiotensin II in patients suffering from hypotension was determined and the patients were administered Angiotensin II or a placebo and their survival monitored for 28 days. In general, a low ratio of blood concentration of angiotensin I to blood concentration of angiotensin II (relative high ANG2 state) is protective across the patient population in multivariate analysis. When assessed by tertile, patients with a low ratio of blood concentration of angiotensin I to blood concentration of angiotensin II had better outcomes as assessed by a 28-day all-cause mortality as compared to high ratio of blood concentration of angiotensin I to blood concentration of angiotensin II (K-M survival curves, FIGS. 1 to 4). […] See also Table I and Table II."}}, "note": "Like-named read-outs stand apart in the source and are kept apart here.", "data": [{"compound": "CC[C@H](C)[C@H](NC(=O)[C@H](Cc1ccc(O)cc1)NC(=O)[C@@H](N)C(C)C)C(=O)N[C@@H](Cc1cnc[nH]1)C(=O)N1CCC[C@H]1C(=O)N[C@@H](Cc1ccccc1)C(=O)O", "note": "[Angiotensin IV, Val-Tyr-Ile-His-Pro-Phe]", "values": [{"measurement": "Activity relative to angiotensin II", "setting": "[1]; in words", "value": "less activity than angiotensin II"}]}, {"compound": "Arg-Val-Tyr-Ile-His-Pro-Phe (RVYIHPF; printed: Arg-Val-Tyr-Ile-His-Pro-Phe) [Angiotensin III]", "values": [{"measurement": "Activity relative to angiotensin II", "setting": "[1]; of the activity of angiotensin II", "value": "approximately 40%"}]}, {"compound": "angiotensin II (DRVYIHPF; printed: Asp-Arg-Val-Tyr-Ile-His-Pro-Phe) [LJPC-501, text says patients were administered Angiotensin II or a placebo]", "values": [{"measurement": "Mortality at Day 28, Estimate (95% CI)", "setting": "[2]; Baseline Ang I:Ang II ratio <1.63, n = 70", "value": "41.6% (31.0%-54.0%)"}, {"measurement": "Mortality at Day 28, Estimate (95% CI)", "setting": "[2]; Baseline Ang I:Ang II ratio ≥1.63, n = 72", "value": "50.0% (39.1%-62.0%)"}, {"measurement": "Survival of patients with elevated Ang I:Ang II ratio", "setting": "[2]; Elevated ratio patients given angiotensin II, compared with patients with a lower ratio", "value": "survival becomes comparable to patients who display a lower angiotensin I to angiotensin II ratio"}, {"measurement": "Treatment effect on 28-day all-cause mortality compared to control", "setting": "[2]; Patients with the highest Ang I:Ang II ratio (relative low ANG2 state)", "value": "large treatment effect compared to control"}, {"measurement": "HR for mortality at Day 28, within treatment group", "setting": "[2]; Within treatment group, baseline Ang I:Ang II ratio <1.63 vs ≥1.63", "value": 0.80}]}]}
